Columns and labels:
[1] = target: T1, AVR4(C122S); also printed AVR4(C112S) (Gallus gallus, UniProt P56734, C146S); test: SDS-PAGE thermostability of acylated protein; assay type: binding; settings: thermal shift of subunit dissociation; Tr without biotin 90 °C; 140 µM D-biotin
T1 construct: recombinant AVR4 with cysteine-to-serine change, tetramer
Text: SDS-PAGE thermostability of acylated protein on AVR4(C122S); also printed AVR4(C112S)

[2] = target: chimeric dual-chain avidin dcAVD/AVR4 (tandem fusion of circularly permuted avidin cp54 and circularly permuted AVR4 cp65) (chicken); test: SEC; Superdex 75 10/300 GL, 50 ug protein in 50 mM NaPO4 pH 7, 650 mM NaCl; column calibrated with Bio-Rad standards 1.5-67 kDa; dimer of the dual-chain polypeptide (pseudotetramer)

T1 sequence (P56734 25-150 C146S): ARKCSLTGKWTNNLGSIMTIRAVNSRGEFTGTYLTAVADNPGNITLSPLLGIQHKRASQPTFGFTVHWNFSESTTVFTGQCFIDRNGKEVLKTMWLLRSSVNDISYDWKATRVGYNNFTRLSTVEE

Molecule | SDS-PAGE / Tr ^(+BTN) (°C) [1] [°C] | stoichiometry N [2]
O=C(O)CCCC[C@@H]1SC[C@@H]2NC(=O)N[C@@H]21 [D-biotin] | 95 | 
chimeric dual-chain avidin dcAVD/AVR4 (tandem fusion of circularly permuted avidin cp54 and circularly permuted AVR4 cp65) |  | 2
